Data as given in the supplement of paper PMC11451515.

Key:
Details in all cases: 48 h
P12-Ichikawa [1] = experiment: AUC of viability dose-response curve (% viability x log10 dose units); higher = less sensitive
Outline: (§1)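 Seeding of medium-adapted leukemia cells was at 500 or 1000 cells/well in 1536-well plates, followed by 48 h at 37°C with library compounds in DMSO at 11 threefold doses from 47 μM to 0.79 nM. CellTiter-Glo One luminescence was normalised per plate to DMSO and cell-free wells and fitted as a four-parameter log-logistic function of log10 dose. Area under the curve was integrated by trapezoidal rule, with curves exceeding full viability scaled and curves failing quality control removed.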

SEM cells [2] = experiment: as above
Outline: as §1

NOMO1 [3] = experiment: as above
Outline: as §1

P12-Ichikawa [4] = experiment: cell viability relative to DMSO control; higher = less cytotoxic
Outline: (§2)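 Library compounds in DMSO were pin-dosed in an 11-point threefold series (47 μM to 0.79 nM) onto leukemia cells in 1536-well plates (5 μl). Plates held 500 cells/well of NOMO1 or SEM or 1000 cells/well of P12-Ichikawa, each adapted for at least four passages in each medium. Luminescence was read with CellTiter-Glo One after 48 h at 37°C. Viability means the per-plate percentage relative to DMSO wells, using cell-free wells as background.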

SEM cells [5] = experiment: as above
Outline: as §2

NOMO1 [6] = experiment: as above
Outline: as §2

[7] = RPMI 5 mM glucose + 10% dialyzed FBS
[8] = HPLM + 10% dialyzed FBS, 0.000781 µM
[9] = HPLM + 10% dialyzed FBS, 0.00234 µM
[10] = HPLM + 10% dialyzed FBS, 0.00702 µM
[11] = HPLM + 10% dialyzed FBS, 0.0211 µM
[12] = HPLM + 10% dialyzed FBS, 0.0632 µM
[13] = HPLM + 10% dialyzed FBS, 0.19 µM
[14] = HPLM + 10% dialyzed FBS, 0.569 µM
[15] = HPLM + 10% dialyzed FBS, 1.71 µM
[16] = HPLM + 10% dialyzed FBS, 5.12 µM
[17] = HPLM + 10% dialyzed FBS, 15.4 µM
[18] = HPLM + 10% dialyzed FBS, 46.1 µM
[19] = RPMI 5 mM glucose + 10% FBS, 0.000781 µM
[20] = RPMI 5 mM glucose + 10% FBS, 0.00234 µM
[21] = RPMI 5 mM glucose + 10% FBS, 0.00702 µM
[22] = RPMI 5 mM glucose + 10% FBS, 0.0211 µM
[23] = RPMI 5 mM glucose + 10% FBS, 0.0632 µM
[24] = RPMI 5 mM glucose + 10% FBS, 0.19 µM
[25] = RPMI 5 mM glucose + 10% FBS, 0.569 µM
[26] = RPMI 5 mM glucose + 10% FBS, 1.71 µM
[27] = RPMI 5 mM glucose + 10% FBS, 5.12 µM
[28] = RPMI 5 mM glucose + 10% FBS, 15.4 µM
[29] = RPMI 5 mM glucose + 10% FBS, 46.1 µM
[30] = RPMI 5 mM glucose + 10% dialyzed FBS, 0.000781 µM
[31] = RPMI 5 mM glucose + 10% dialyzed FBS, 0.00234 µM
[32] = RPMI 5 mM glucose + 10% dialyzed FBS, 0.00702 µM
[33] = RPMI 5 mM glucose + 10% dialyzed FBS, 0.0211 µM
[34] = RPMI 5 mM glucose + 10% dialyzed FBS, 0.0632 µM
[35] = RPMI 5 mM glucose + 10% dialyzed FBS, 0.19 µM
[36] = RPMI 5 mM glucose + 10% dialyzed FBS, 0.569 µM
[37] = RPMI 5 mM glucose + 10% dialyzed FBS, 1.71 µM
[38] = RPMI 5 mM glucose + 10% dialyzed FBS, 5.12 µM
[39] = RPMI 5 mM glucose + 10% dialyzed FBS, 15.4 µM
[40] = RPMI 5 mM glucose + 10% dialyzed FBS, 46.1 µM

For `N#Cc1cc(NC(=O)Nc2nnc(-c3ccncc3)s2)ccc1-c1cn[nH]c1`, the “AUC of viability dose-response curve” value (P12-Ichikawa [1]; HPLM + 10% dialyzed FBS) was 463, the “AUC of viability dose-response curve” value (P12-Ichikawa [1]; RPMI 5 mM glucose + 10% FBS) was 452 and the “AUC of viability dose-response curve” value (P12-Ichikawa [1]; [7]) was 465. For the same compound, the “AUC of viability dose-response curve” value (SEM cells [2]; HPLM + 10% dialyzed FBS) was 451, the “AUC of viability dose-response curve” value (SEM cells [2]; RPMI 5 mM glucose + 10% FBS) was 462 and the “AUC of viability dose-response curve” value (SEM cells [2]; [7]) was 467. The “AUC of viability dose-response curve” value (NOMO1 [3]; HPLM + 10% dialyzed FBS) was 473, the “AUC of viability dose-response curve” value (NOMO1 [3]; RPMI 5 mM glucose + 10% FBS) was 476 and the “AUC of viability dose-response curve” value (NOMO1 [3]; [7]) was 461. The cell viability (P12-Ichikawa [4]; [8]) was 117%, the cell viability (P12-Ichikawa [4]; [9]) was 125% and the cell viability (P12-Ichikawa [4]; [10]) was 122%. The cell viability (P12-Ichikawa [4]; [11]) was 125%, the cell viability (P12-Ichikawa [4]; [12]) was 120% and the cell viability (P12-Ichikawa [4]; [13]) was 116%. The cell viability (P12-Ichikawa [4]; [14]) was 122%, the cell viability (P12-Ichikawa [4]; [15]) was 115% and the cell viability (P12-Ichikawa [4]; [16]) was 113%. The cell viability (P12-Ichikawa [4]; [17]) was 106%, the cell viability (P12-Ichikawa [4]; [18]) was 110% and the cell viability (P12-Ichikawa [4]; [19]) was 120%. The cell viability (P12-Ichikawa [4]; [20]) was 127%, the cell viability (P12-Ichikawa [4]; [21]) was 125% and the cell viability (P12-Ichikawa [4]; [22]) was 126%. It also gave a cell viability (P12-Ichikawa [4]; [23]) of 110%, a cell viability (P12-Ichikawa [4]; [24]) of 116% and a cell viability (P12-Ichikawa [4]; [25]) of 119%. It also gave a cell viability (P12-Ichikawa [4]; [26]) of 113%, a cell viability (P12-Ichikawa [4]; [27]) of 119% and a cell viability (P12-Ichikawa [4]; [28]) of 112%. The cell viability (P12-Ichikawa [4]; [29]) was 109%, the cell viability (P12-Ichikawa [4]; [30]) was 121% and the cell viability (P12-Ichikawa [4]; [31]) was 126%. The cell viability (P12-Ichikawa [4]; [32]) was 117%, the cell viability (P12-Ichikawa [4]; [33]) was 124% and the cell viability (P12-Ichikawa [4]; [34]) was 126%. For the same compound, the cell viability (P12-Ichikawa [4]; [35]) was 126%, the cell viability (P12-Ichikawa [4]; [36]) was 128% and the cell viability (P12-Ichikawa [4]; [37]) was 124%. It also gave a cell viability (P12-Ichikawa [4]; [38]) of 115%, a cell viability (P12-Ichikawa [4]; [39]) of 112% and a cell viability (P12-Ichikawa [4]; [40]) of 105%. It also gave a cell viability (SEM cells [5]; [19]) of 96%, a cell viability (SEM cells [5]; [20]) of 111% and a cell viability (SEM cells [5]; [21]) of 93%. The cell viability (SEM cells [5]; [22]) was 85.1%, the cell viability (SEM cells [5]; [23]) was 96.4% and the cell viability (SEM cells [5]; [24]) was 106%. It also gave a cell viability (SEM cells [5]; [25]) of 107%, a cell viability (SEM cells [5]; [26]) of 105% and a cell viability (SEM cells [5]; [27]) of 87.9%. It also gave a cell viability (SEM cells [5]; [28]) of 93.1%, a cell viability (SEM cells [5]; [29]) of 89.2% and a cell viability (SEM cells [5]; [30]) of 107%. For the same compound, the cell viability (SEM cells [5]; [31]) was 120%, the cell viability (SEM cells [5]; [32]) was 128% and the cell viability (SEM cells [5]; [33]) was 107%. For the same compound, the cell viability (SEM cells [5]; [34]) was 98.6%, the cell viability (SEM cells [5]; [35]) was 129% and the cell viability (SEM cells [5]; [36]) was 113%. The cell viability (SEM cells [5]; [37]) was 122%, the cell viability (SEM cells [5]; [38]) was 127% and the cell viability (SEM cells [5]; [39]) was 93%. For the same compound, the cell viability (SEM cells [5]; [40]) was 108%, the cell viability (NOMO1 [6]; [8]) was 117% and the cell viability (NOMO1 [6]; [9]) was 118%. For the same compound, the cell viability (NOMO1 [6]; [10]) was 115%, the cell viability (NOMO1 [6]; [11]) was 110% and the cell viability (NOMO1 [6]; [12]) was 116%. For the same compound, the cell viability (NOMO1 [6]; [13]) was 114%, the cell viability (NOMO1 [6]; [14]) was 113% and the cell viability (NOMO1 [6]; [15]) was 130%. For the same compound, the cell viability (NOMO1 [6]; [16]) was 121%, the cell viability (NOMO1 [6]; [17]) was 123% and the cell viability (NOMO1 [6]; [18]) was 106%. For the same compound, the cell viability (NOMO1 [6]; [19]) was 108%, the cell viability (NOMO1 [6]; [20]) was 100% and the cell viability (NOMO1 [6]; [21]) was 114%. For the same compound, the cell viability (NOMO1 [6]; [22]) was 124%, the cell viability (NOMO1 [6]; [23]) was 114% and the cell viability (NOMO1 [6]; [24]) was 115%. It also gave a cell viability (NOMO1 [6]; [25]) of 99.6%, a cell viability (NOMO1 [6]; [26]) of 114% and a cell viability (NOMO1 [6]; [27]) of 105%. The cell viability (NOMO1 [6]; [28]) was 127% and the cell viability (NOMO1 [6]; [29]) was 101%.
